Measurements as given in paper PMC8111447 (Frontiers in Pharmacology, 2021).
Read-outs that look alike come from different tables or passages of the source.

Columns and labels:
A431 (EGFR^WT) = assay: Cell proliferation assay (CTG, 72 h); assay type: cell-based; details: Homo sapiens, A-431, A431 cells, mean ± SD, n = 3
Experimental: Human lung cancer cell lines (NCI-H1975, H3255 and A431) were obtained from the American Type Culture Collection (ATCC), while PC-9 cell line was supplied by the European Collection of Authenticated Cell Cultures (ECACC). For in vivo implantation, NCI-H1975, H3255 and PC-9 cells were cultured in RPMI1640 (Invitrogen) supplemented with 10% v/v fetal calf serum (Sigma-Aldrich) and 2 mmol/L L-glutamine (Invitrogen). A431 cells were cultured in DMEM (Invitrogen) supplemented with 10% v/v fetal calf serum and 2 mmol/L v/v L-glutamine. All cell lines were then cultured in a humidified incubator with 5% CO2 at 37°C.
Test compounds were dissolved in DMSO as a 10 mmol/L stock solution. The initial concentration of compounds were 10 μmol/L and the 3-fold dilution was nine times. […] Plate was shaked for 2 min and the mixture was incubated at room temperature for 10 min.
The half-maximal inhibition concentration (IC50) values were processed by GraphPad Prism7 (GraphPad Software; La Jolla, CA).

[1] = test system: EGFR phosphorylation (pY1068) in A431 cells; assay: Phosphorylation of EGFR assay, time course; assay type: cell-based, human; details: 0.1 μmol/L, 1-10 h, EGF stimulated
Experimental: (§1) Cells (NCI-H1975/PC-9/[…]) were seeded into a 384-well plate (10,000 cells/well), grown for 24 h, and then treated with different test compounds (0.1 μmol/L) for 1, 2, 4, 6, 8 and 10 h. A431 cells were stimulated with 100 ng/ml EGF after incubation for 10 min. Cells were washed with ice-cold HBSS before extraction with 25 μl cell lysis buffer. Phosphorylation of EGFR was measured using a sandwich ELISA assay with phospho-specific EGFR (pY1068) antibodies [AlphaLISA SureFire p-EGF Receptor (Tyr1068) Assay Kit, PerkinElmer].

[2] = test system: EGFR phosphorylation (pY1068) in PC-9 cells; assay: Phosphorylation of EGFR assay, time course; assay type: cell-based, human; details: 0.1 μmol/L, 1-10 h
Experimental: as §1

[3] = test system: NCI-H1975 (L858R/T790M) xenograft; assay: NCI-H1975 xenograft model; assay type: in vivo, Nu/Nu nude mice; details: for tumor growth inhibition rate: after 14 days of dosing, vs vehicle
Experimental: (§2) The female Nu/Nu nude mice were purchased from Beijing Vital River Laboratories. […] Nu/Nu nude mice were purchased from the Beijing Vital River Laboratories of China. The 6–8 weeks old female mice were inoculated subcutaneously at the right flank with approximately 3–5 × 10^6 tumor cells in 0.2 ml of medium. The treatments were started when the tumor size reached approximately 200 mm^3. […] All mice were orally administrated once daily for consecutive 14 days. Mouse body weight, tumor weight and tumor volume (TV) were measured twice per week. TV was then used for the calculation of tumor inhibitory rate and tumor regression rate.

[4] = test system: PC-9 (exon 19 del) xenograft; assay: PC-9 xenograft model; assay type: in vivo, Nu/Nu nude mice; details: oral, 2.5 to 15 mg/kg
Experimental: as §2

[5] = test system: A431 (wild-type EGFR) tumor xenografts; assay: A431 xenograft model; assay type: in vivo, Nu/Nu nude mice; details: 5 mg/kg/day
Experimental: as §2

[6] = test system: phosphorylation of EGFR and ERK; assay: Immunohistochemistry of tumor tissue from NCI-H1975 xenograft model; assay type: in vivo, Nu/Nu nude mice; details: 6–24 h
Experimental: Paraffin-embedded tumor tissues from each group were sectioned, mounted on positively charged glass slides, baked, deparaffinized, and rehydrated. Antigen retrieval was performed by heating slides in EDTA (pH 8.0) for 10 min. Sections were incubated in p-EGF Receptor ([…]) Rabbit antibody and Phospho-p44/42 MAPK (Erk1/2) (Thr202/Tyr204) (20G11) Rabbit antibody overnight at 4°C and then incubated with Anti-Rabbit IgG (H + L) at 37°C for 45 min. The sections were then stained with diaminobenzidine (DAB) and visualized.

[7] = Plasma pharmacokinetics in NCI-H1975 tumor-bearing mice; assay type: in vivo; details: for AUC(0-t): po, read-out: AUC0–t in plasma
Experimental: (§3) NCI-H1975 tumor-bearing mice with tumor burden of approximately 200 mm^3 were used in the pharmacokinetics and pharmacodynamics study. […] Blood samples were collected at 0 (pre-dose), 10, 30 min, 1, 2, 4, 8, and 24 h post-dose.
(§4) Ionization mode. Drug to internal standard peak area ratios for the standards were used to create a calibration curve using 1/×^2 weighted least-squares regression analysis. Concentrations of each analyte were quantified by comparing the ratios for each in-trial sample with those in the relevant calibration curve.

[8] = Tissue distribution in NCI-H1975 tumor-bearing mice; assay type: in vivo
Experimental: as §3, §4

[9] = Metabolite profiling in liver microsomes; assay type: in vitro ADME; details: incubation 60 min at 37°C; mouse, rat, dog, monkey and human liver microsomes
Experimental: Metabolite profiling was conducted in mouse, rat, dog, monkey, and human liver microsomes in vitro as well as in rat plasma, feces, and urine samples in vivo (From other experiments). […] All samples were analyzed by the LC/MS/MS (AB Sciex, API 5500 Qtrap) system. The structures of major metabolites were elucidated based on EPI spectra and further verified using authentic standards. The main metabolite Imp3 was quantified in multiple reaction monitoring mode in rat, dog and human clinical samples.

For `C=CC(=O)Nc1cc(Nc2nccc(-c3c4n(c5ccccc35)CCCC4)n2)c(OC)cc1N(C)CCNC` [Imp3], the IC50 (A431 (EGFR^WT)) was 704 ± 92.5 nM.
In the case of `C=CC(=O)Nc1cc(Nc2nccc(-c3c4n(c5ccccc35)CCCC4)n2)c(OC)cc1N(C)CCN(C)C` [SH-1028], the IC50 (A431 (EGFR^WT)) is reported as 779 ± 135 nM, the “inhibitory effect on EGFR phosphorylation” value [1] is reported as “weak inhibitory effect” and the “inhibitory effect on EGFR phosphorylation” value [2] is reported as “stronger than that of osimertinib”. The “tumor growth inhibition rate” value ([3]; 2.5 mg/kg oral once daily) was 72.6%, the “tumor growth inhibition rate” value ([3]; 5 mg/kg oral once daily) was 91.8% and the “tumor growth inhibition rate” value ([3]; 15 mg/kg oral once daily) was 98.8%. For the same compound, the body weight ([3]; 2.5 to 15 mg/kg oral once daily, 14 days) was “no TKI-induced weight loss”, the tumor growth [4] was “significant inhibition of tumor cell growth” and the tumor growth [5] was “moderate tumor growth inhibition”. The “phosphorylation levels of EGFR and ERK in tumor tissues” value [6] was “continuously inhibit the phosphorylation of EGFR and ERK”, the AUC(0-t) ([7]; Nu/Nu nude, mouse, plasma, 2.5 mg/kg, 2.5 mg/kg oral daily, Day 14) was 272 ng·h/mL and the AUC(0-t) ([7]; Nu/Nu nude, mouse, plasma, 2.5 mg/kg, 2.5 mg/kg oral, Day 1) was 118 ng·h/mL. For the same compound, the AUC(0-t) ([7]; Nu/Nu nude, mouse, plasma, 5 mg/kg, 5 mg/kg oral daily, Day 14) was 308 ng·h/mL, the AUC(0-t) ([7]; Nu/Nu nude, mouse, plasma, 5 mg/kg, 5 mg/kg oral, Day 1) was 300 ng·h/mL and the AUC(0-t) ([7]; Nu/Nu nude, mouse, plasma, 15 mg/kg, 15 mg/kg oral daily, Day 14) was 993 ng·h/mL. The AUC(0-t) ([7]; Nu/Nu nude, mouse, plasma, 15 mg/kg, 15 mg/kg oral, Day 1) was 931 ng·h/mL, the Tmax ([7]; Nu/Nu nude, mouse, plasma, oral 2.5, 5 and 15 mg/kg) was 1.5 to 2 h and the “accumulation between Days 1–14” value ([7]; oral daily dosing for 14 days) was “no significant accumulation”. For the same compound, the “distribution into tissues (tumor tissues, adjacent lung tissues and brain)” value ([8]; 15 mg/kg oral, within 2 h, Day 1) was “rapidly and extensively distributed into tissues”, the blood-brain barrier penetration ([8]; pharmacokinetic experiments) was “could penetrate the blood-brain barrier” and the “number of metabolites detected” value [9] was 27.
